This is an account of results in publication PMC9511493, “2-(Fluoromethoxy)-4′-(S-methanesulfonimidoyl)-1,1′-biphenyl (UCM-1306), an Orally Bioavailable Positive Allosteric Modulator of the Human Dopamine D1 Receptor for Parkinson’s Disease” (Journal of Medicinal Chemistry, 2022).

The term solubility denotes how much of the substance goes into solution per volume. Low readings indicate little dissolved substance, high ones much dissolved substance. One may read the IC50 as the point on the concentration scale where inhibition reaches its midpoint. Lower therefore signals greater potency.

Values after ≈ are worked out from the molar mass of the structure shown. Values joined by “and” are separate entries in the source; they are usually repeats but may differ in a detail not shown here. Equal values may be shown once.

A short description of series [1]: solubility by nephelometry. Type of series: physicochemical. To be noted: PBS buffer with 1% DMSO; maximum solubility by nephelometry. The protocol: Prior to use, the pre-coated PAMPA plate system was warmed to rt for 30 min and 300 μL of 200 μM solution of tested compound in 2% DMSO in PBS were added to the wells in the receiver (donor) plate.
Then, 200 μL of PBS were added to the wells in the filter (acceptor) plate. The filter plate was placed on the receiver plate by slowly lowering the pre-coated PAMPA plate until it sits on the receiver plate. The assembly was incubated at rt for 5 h, and then buffer samples were collected carefully from each plate. […]
CD(t) = compound concentration (μM) in donor well at time t, and Ceq = […]
Solubility. […] The solutions were i ncubated for 2 h at 37 °C and read in a NEPHELOstar Plus instrument (BMG LABTECH). […]
Fluorescence per well was measured using a fluorescence plate reader (Tecan Infinite M1000 pro) and percentage of inhibition was calculated. hERG ion channel inhibition. […] Cell s were maintained at 37 °C in a 5% CO2 atmosphere for 24 h and at 30 °C in a 5% CO 2 atmosphere for 48 h. hERG activity was measured by using the FluxorTM Potassium Ion Chanel Assay Kit (Thermo Fisher F10016). […] After this time, 5 µL of stimulus buffer was added to each well and fluorescence was read (λ ex = 490 nm, λem = 525 nm) every second after the establishment of a baseline line using an imaging plate reader system (FDSS7000EX, Hamamatsu®). […]

For another series, the target named is T1, CYP2D6 (Homo sapiens, UniProt P10635).
T1 construct: host or cells: insect cell microsomes
T1 sequence (P10635 whole entry): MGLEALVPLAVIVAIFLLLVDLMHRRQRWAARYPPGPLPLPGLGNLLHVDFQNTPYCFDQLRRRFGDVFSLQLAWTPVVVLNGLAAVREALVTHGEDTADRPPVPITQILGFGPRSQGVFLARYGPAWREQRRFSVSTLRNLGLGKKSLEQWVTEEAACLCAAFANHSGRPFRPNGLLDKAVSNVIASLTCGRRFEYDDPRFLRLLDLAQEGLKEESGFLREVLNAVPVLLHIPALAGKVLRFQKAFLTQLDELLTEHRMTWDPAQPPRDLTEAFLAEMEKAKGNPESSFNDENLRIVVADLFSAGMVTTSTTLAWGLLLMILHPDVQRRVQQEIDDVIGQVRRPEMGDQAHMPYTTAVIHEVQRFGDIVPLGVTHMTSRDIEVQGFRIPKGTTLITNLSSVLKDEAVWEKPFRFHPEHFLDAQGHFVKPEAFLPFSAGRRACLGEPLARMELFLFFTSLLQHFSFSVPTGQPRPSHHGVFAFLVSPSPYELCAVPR
The experiment in a line: cytochrome inhibition, fluorescence assay, CYP2D6. Type of series: in vitro ADME. Here is the method: (§1) Cytochrome inhibition. The objective of this study was to screen the potential of test […]
(§2) performed using recombinant isoforms CYP1A2, CYP2C9, CYP2C19, CYP2D6, and CYP3A4, and probe substrates with fluorescent detection.
(§3) Assays were conducted in a 200 µL volume in 96-well microtiter plates (COSTAR 3915).
(§4) Addition of cofactor-buffer mixture (KH2PO4 buffer, 1.3 mM NADP, 3.3 mM MgCl2, 3.3 mM glucose -6- phosphate, and 0.4 U/mL glucose -6- phosphate dehydrogenase), supersomes control, standard inhibitors (furafyline, tranylzypromine, ketoconazole, sulfaphenazole, and quinidine from Sigma Aldrich) and test compound to the plate was carried out by a liquid handling station (Zephyr Caliper). The plate was then pre-incubated at 37 °C for 5 min, and the reaction was initiated by the addition of the pr e - warmed enzyme/substrate (E/S) mix. […]
(§5) Fluorescence per well was measured using a fluorescence plate reader (Tecan Infinite M1000 pro) and percentage of inhibition was calculated. hERG ion channel inhibition. […]

Another series is described as follows: stability in mouse serum. Format: in vitro ADME. The conditions noted are these: remaining compound after 4 h.
Another series concerns the target T2, CYP1A2 (Homo sapiens, UniProt P05177).
T2 construct: host or cells: insect cell microsomes
T2 sequence (P05177 1-516): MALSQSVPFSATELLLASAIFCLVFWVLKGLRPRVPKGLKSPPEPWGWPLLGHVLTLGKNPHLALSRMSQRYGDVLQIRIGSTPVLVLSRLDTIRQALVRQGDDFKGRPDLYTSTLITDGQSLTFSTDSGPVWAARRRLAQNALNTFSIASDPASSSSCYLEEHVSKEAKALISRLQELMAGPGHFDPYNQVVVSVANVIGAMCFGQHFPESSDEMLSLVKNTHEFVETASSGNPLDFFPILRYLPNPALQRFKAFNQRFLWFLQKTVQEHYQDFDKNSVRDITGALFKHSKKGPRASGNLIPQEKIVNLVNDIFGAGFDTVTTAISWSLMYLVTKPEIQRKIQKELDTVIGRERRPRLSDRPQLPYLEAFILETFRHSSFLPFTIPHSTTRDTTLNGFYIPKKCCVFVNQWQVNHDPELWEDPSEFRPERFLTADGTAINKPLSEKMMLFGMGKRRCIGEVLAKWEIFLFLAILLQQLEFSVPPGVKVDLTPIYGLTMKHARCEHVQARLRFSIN
The experiment in a line: cytochrome inhibition, fluorescence assay, CYP1A2. Format: in vitro ADME. The protocol:
as §1, §2, §3, §4, §5

For another series, the target named is T3, human dopamine D1R (Homo sapiens, UniProt P21728).
T3 construct: purchased Perkin Elmer
T3 sequence (P21728 whole entry): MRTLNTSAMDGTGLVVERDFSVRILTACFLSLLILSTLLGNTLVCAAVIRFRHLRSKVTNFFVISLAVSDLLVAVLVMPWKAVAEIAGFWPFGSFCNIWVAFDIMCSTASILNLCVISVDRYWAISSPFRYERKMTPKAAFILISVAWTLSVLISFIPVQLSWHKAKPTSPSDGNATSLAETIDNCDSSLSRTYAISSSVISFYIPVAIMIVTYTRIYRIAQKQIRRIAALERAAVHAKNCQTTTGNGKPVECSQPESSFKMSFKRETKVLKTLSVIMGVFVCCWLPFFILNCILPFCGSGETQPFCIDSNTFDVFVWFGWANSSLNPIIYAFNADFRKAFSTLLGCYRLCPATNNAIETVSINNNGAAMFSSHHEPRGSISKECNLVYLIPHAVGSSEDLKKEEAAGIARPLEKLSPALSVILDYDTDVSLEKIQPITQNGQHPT
Briefly: radioligand binding assay with [3H]SCH23390 at human D1R membranes. The protocol:
Binding assays were carried out by using plasma membranes (12 μg/well) expressing human dopamine D1R (Perkin Elmer). […] After this time, the well content was filtered through a Millipore manifold and membranes were washed four times with assay buffer. The plate was dried and radioactivity was measured in a Microbeta Trilux liquid scintillation reader (Perkin Elmer). Non-specific binding was determined in the presence of 1 μM (+)-butaclamol. Data were normalized to the percentage of specific binding and fitted to a 4-parameter logistic equation using with Prism v2.1 software (GraphPad Inc). For the calculation of the affinity ratio of DA in the presence of the allosteric modulators, data were fitted according to the equations reported by Lazareno and Birdsall.[44]

The mark [2] stands for this setting: percentage of inhibition at 10 μM.

The molecule `O=Cc1ccc(-c2ccccc2OCF)cc1` [Compound 3, 2′-(Fluoromethoxy)[1,1′-biphenyl]-4-carbaldehyde] returned a solubility at 2 h in series [1] of 15 µM (≈ 3.45 µg/mL). Moreover, at CYP2D6 (Table S1, concentration not given), the “CYP2D6 (%)” value is “inactive”. Also, the “mouse serum stability (%)” value in “stability in mouse serum” is 50%. Moreover, the IC50 against CYP1A2 was determined as 0.83 ± 0.17 µM. Also, on human dopamine D1R (at 10 μM), the “displacement of the radioligand [3H]SCH-23390” value was found to be 12%.

For `CS(=N)(=O)c1ccc(-c2ccccc2OCF)cc1` (stereo not shown) [Compound 26, 2-(Fluoromethoxy)-4′-(S-methanesulfonimidoyl)-1,1′-biphenyl], the solubility at 2 h in series [1] is 50 µM (≈ 14 µg/mL). In addition, at CYP2D6 (setting [2]), the “CYP2D6 (%)” value is 3% and 3 ± 1%. The “mouse serum stability (%)” value in “stability in mouse serum” was found to be 93%. Besides, the “CYP1A2 (%)” value on CYP1A2 (setting [2]) stood at 49 ± 2%. Further, the “affinity ratio of [3H]SCH-23390” value at human dopamine D1R (in the presence of 4 μM DA) is given as “concentration-dependent increase of the affinity ratio values”.
